This note sets out measurements from patent US5849731A, “Indole derivatives and medical application thereof” (Toray Industries, Inc., priority 1995, dated 1998).

Assay [1] deals with T1, δ-opioid (Mus musculus, UniProt P32300).
T1 construct: Each of the vas deferens isolated from the mice was hung in a Magnus tube; from tissue; host or cells: isolated vas deferens of male ddy strain mice
Description: δ-opioid antagonism against DPDPE in mouse vas deferens (MVD). Type of assay: biochemical, mouse (male ddy strain). The procedure:
Using mouse vas deferens (MVD), antagonistic compounds were examined for antagonism against a δ-opioid agonist DPDPE, and agonistic compounds were examined for inhibitory activity against MVD contraction by electric stimulation, and for antagonism by a δ-opioid antagonist NTI.
Male ddy strain mice were used in this experiment. Each of the vas deferens isolated from the mice was hung in a Magnus tube which was filled with a Krebes-Henseleit solution (NaCl […]; KCl 4.7 mM; CaCl2 2.5 mM; KH2 PO4 1.1 mM; NaHCO3 25 mM; glucose 11 mM), and aerated with a gas of 5% carbon dioxide and 95% oxygen and maintained at 37° C. Electric stimulation was applied through upper and lower ring-shaped platinum electrodes at 0.1 Hz and 5.0 mS. Tissue contraction was recorded on a polygraph using an isometric transducer.
Initially, DPDPE was added in a cumulative manner to determine the IC50 value (concentration for 50% inhibition of contraction induced by electric stimulation). Next, 100 nM of a sample compound was added to the system beforehand, and 20 minutes later, DPDPE was added in a cumulative manner. According to the above procedure, the ratio of the IC50 value of DPDPE in the presence of the sample compound to that in the absence of it was determined, and the pA2 value was calculated in accordance with the Schild, et al.'s method [Schild, H. O., Br. J. Pharamacol. Chamother. 4, 277 (1949)].

For assay [2], the system named is capsaicin-induced cough. Description: Antitussive action in rat, capsaicin-induced cough. To be noted: ip, 0.5 h, dosage for 50% cough inhibition, intraperitoneal, 10% DMSO solution, 30 minutes after administration. The assay is classed as in vivo. On the procedure:
Evaluation of Antitussive Action in Rat as a Model for Capsaicin-Induced Cough
Cough was induced by forcing rats to inhale capsaicin (60 μM) which was nebulized by an ultrasonic nebulizer, and fed to caps over the rats' heads through silicone tubes by a respirator. Capsaicin was fed for inhalation at a rate of 70 times/min. and 10 ml each time.
Two hundred and seventy minutes before the drug administration, capsaicin was inhaled for 5 minutes, and inducement of coughing was confirmed during this period. Thirty minutes after the drug administration, capsaicin was inhaled for 5 minutes, and the number of induced coughs during capsaicin inhalation was counted. Antitussive effect was evaluated by determining an inhibitory ratio, namely, the ratio of the number of coughs after the drug administration to that before the drug administration. Capsaicin was dissolved in saline. Each drug was dissolved in a 10% DMSO solution and intraperitoneally administered. The effect of the drug is expressed with an ED50 value which is the dosage for 50% cough inhibition

T1 sequence (P32300 whole entry): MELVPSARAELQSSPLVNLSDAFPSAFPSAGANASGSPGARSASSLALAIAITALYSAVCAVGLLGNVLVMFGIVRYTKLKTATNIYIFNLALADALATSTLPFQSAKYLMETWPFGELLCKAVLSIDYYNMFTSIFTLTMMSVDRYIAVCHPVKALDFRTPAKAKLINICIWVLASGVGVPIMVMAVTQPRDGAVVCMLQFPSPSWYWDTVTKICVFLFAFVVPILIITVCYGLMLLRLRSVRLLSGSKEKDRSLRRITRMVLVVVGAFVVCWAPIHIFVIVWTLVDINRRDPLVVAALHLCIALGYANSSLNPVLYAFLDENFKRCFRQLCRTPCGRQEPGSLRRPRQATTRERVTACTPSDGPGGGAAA

Regarding `CO[C@@]12Cc3c(n4c5c(cccc35)CCC4)[C@@H]3Oc4c(O)ccc5c4[C@@]31CCN(CC1CC1)[C@@H]2C5` [Compound 66, 17-cyclopropylmethyl-6,7-didehydro-4,5α-epoxy-3-hydroxy-14β-methoxy-1',7'-trimethylene-6,7,2',3'-indolomorphinan], the Kb in assay [1] was 0.316 nM.

On to `Oc1ccc2c3c1O[C@H]1c4c(c5cccc6c5n4CCO6)C[C@@]4(O)[C@@H](C2)N(CC2CC2)CC[C@]314` [Compound 23, 17-cyclopropylmethyl-6,7-didehydro-4,5α-epoxy-3,14β-dihydroxy-7',1'-epoxyethano-6,7,2',3'-indolomorphinan], for which, in assay [1], the Kb is 0.158 nM.

The compound `COc1ccc2c3c1O[C@H]1c4c(c5cc(Br)cc6c5n4CCC6)C[C@@]4(O)[C@@H](C2)N(CC2CC2)CC[C@]314` [Compound 35, 17-cyclopropylmethyl-6,7-didehydro-4,5α-epoxy-3-methoxy-14β-hydroxy-1',7'-trimethylene-5'-bromo-6,7,2',3'-indolomorphinan] gave an ED50 in assay [2] of 21.2 µg/kg.

Regarding `COc1ccc2c3c1O[C@H]1c4c(c5cccc6c5n4Cc4ccccc4-6)C[C@@]4(O)[C@@H](C2)N(CC2CC2)CC[C@]314` [Compound 17, 17-cyclopropylmethyl-6,7-didehydro-4,5α-epoxy-3-methoxy-14β-hydroxy-1',7'-(2",3"-benzotrimethylene)-6,7,2',3'-indolomorphinan], the ED50 in assay [2] turned out to be 5.02 µg/kg.

For the compound `COc1ccc2c3c1O[C@H]1c4c(c5c(OC)ccc6c5n4CCC6)C[C@@]4(O)[C@@H](C2)N(CC2CC2)CC[C@]314` [Compound 44, 17-cyclopropylmethyl-6,7-didehydro-4,5α-epoxy-3,4'-dimethoxy-14β-hydroxy-1',7'-trimethylene-6,7,2',3'-indolomorphinan], the 50% effective dose (ED50) in assay [2] was 10.9 µg/kg.

`COc1ccc2c3c1O[C@H]1c4c(c5c(C)ccc6c5n4CCC6)C[C@@]4(O)[C@@H](C2)N(CC2CC2)CC[C@]314` [Compound 14, 17-cyclopropylmethyl-6,7-didehydro-4,5α-epoxy-3-methoxy-14β-hydroxy-1',7'-trimethylene-4'-methyl-6,7,2',3'-indolomorphinan] yielded an ED50 in assay [2] of 23.8 µg/kg.

As for `COc1ccc2c3c1O[C@H]1c4c(c5cccc6c5n4CCC6(C)C)C[C@@]4(O)[C@@H](C2)N(CC2CC2)CC[C@]314` [Compound 40, 17-cyclopropylmethyl-6,7-didehydro-4,5α-epoxy-3-methoxy-14β-hydroxy-1',7'-(1,1-dimethylpropano)-6,7,2',3'-indolomorphinan], the ED50 in assay [2] is 2.46 µg/kg.

In assay [1], `Oc1ccc2c3c1O[C@H]1c4c(c5cccc6c5n4CCS6)C[C@@]4(O)[C@@H](C2)N(CC2CC2)CC[C@]314` [Compound 22, 17-cyclopropylmethyl-6,7-didehydro-4,5α-epoxy-3,14β-dihydroxy-7',1'-epithioethano-6,7,2',3'-indolomorphinan] had a Kb of 0.794 nM.

Compound `Oc1ccc2c3c1O[C@H]1c4c(c5cc(Br)cc6c5n4CCC6)C[C@@]4(O)[C@@H](C2)N(CC2CC2)CC[C@]314` [Compound 20, 17-cyclopropylmethyl-6,7-didehydro-4,5α-epoxy-3,14β-dihydroxy-1',7'-trimethylene-5'-bromo-6,7,2',3'-indolomorphinan] gave a Kb in assay [1] of 3.98 nM.

On to `COc1ccc2c3c1O[C@H]1c4c(c5ccc6cccc7c6c5n4CC7)C[C@@]4(O)[C@@H](C2)N(CC2CC2)CC[C@]314` [Compound 42, 17-cyclopropylmethyl-6,7-didehydro-4,5α-epoxy-3-methoxy-14β-hydroxy-1',3"-ethylene-6',7'-benzo-6,7,2',3'-indolomorphinan], for which the ED50 in assay [2] turned out to be 21.1 µg/kg.

As to `COc1ccc2c3c1O[C@H]1c4c(c5ccc(OC)c6c5n4CCC6)C[C@@]4(O)[C@@H](C2)N(CC2CC2)CC[C@]314` [Compound 12, 17-cyclopropylmethyl-6,7-didehydro-4,5α-epoxy-3,6'-dimethoxy-14β-hydroxy-1',7'-trimethylene-6,7,2',3'-indolomorphinan], in assay [2], the ED50 was 2.5 µg/kg.

Consider `C=CCN1CC[C@]23c4c5ccc(OC)c4O[C@H]2c2c(c4cccc6c4n2CCC6)C[C@@]3(O)[C@H]1C5` [Compound 34, 17-allyl-6,7-didehydro-4,5α-epoxy-3-methoxy-14β-hydroxy-1',7'-trimethylene-6,7,2',3'-indolomorphinan], for which, in assay [2], it took a dose of 1.1 µg/kg to reach the 50% effect level (ED50).

Regarding `C=CCN1CC[C@]23c4c5ccc(O)c4O[C@H]2c2c(c4cccc6c4n2CCC6)C[C@@]3(O)[C@H]1C5` [Compound 30, 17-allyl-6,7-didehydro-4,5α-epoxy-3,14β-dihydroxy-1',7'-trimethylene-6,7,2',3'-indolomorphinan], the Kb in assay [1] was 12.6 nM.

In the case of `COc1ccc2c3c1O[C@H]1c4c(c5cc(F)cc6c5n4CCC6)C[C@@]4(O)[C@@H](C2)N(CC2CC2)CC[C@]314` [Compound 16, 17-cyclopropylmethyl-6,7-didehydro-4,5α-epoxy-3-methoxy-14β-hydroxy-1',7'-trimethylene-5'-fluoro-6,7,2',3'-indolomorphinan], the ED50 in assay [2] was 4.73 µg/kg.

In assay [2], `COc1ccc2c3c1O[C@H]1c4c(c5cc(Cl)cc6c5n4CCC6)C[C@@]4(O)[C@@H](C2)N(CC2CC2)CC[C@]314` [Compound 18, 17-cyclopropylmethyl-6,7-didehydro-4,5α-epoxy-3-methoxy-14β-hydroxy-1',7'-trimethylene-5'-chloro-6,7,2',3'-indolomorphinan] registered an ED50 of 13.4 µg/kg.

`COc1ccc2c3c1O[C@H]1c4c(c5cccc6c5n4CCCC6)C[C@@]4(O)[C@@H](C2)N(CC2CC2)CC[C@]314` [Compound 15, 17-cyclopropylmethyl-6,7-didehydro-4,5α-epoxy-3-methoxy-14β-hydroxy-1',7'-tetramethylene-6,7,2',3'-indolomorphinan]: the 50% effect level in assay [2] (ED50) was put at a dose of 9.68 µg/kg.

The compound `Oc1ccc2c3c1O[C@H]1c4c(c5c(C(F)(F)F)ccc6c5n4CCC6)C[C@@]4(O)[C@@H](C2)N(CC2CC2)CC[C@]314` [Compound 24, 17-cyclopropylmethyl-6,7-didehydro-4,5α-epoxy-3,14β-dihydroxy-1',7'-trimethylene-4'-trifluoromethyl-6,7,2',3'-indolomorphinan] had a Kb in assay [1] of 10 nM.

In turn, `COc1ccc2c3c1c1c(n3CCC2)[C@@H]2Oc3c(O)ccc4c3[C@@]23CCN(CC2CC2)[C@H](C4)[C@]3(O)C1` [Compound 27, 17-cyclopropylmethyl-6,7-didehydro-4,5α-epoxy-3,14β-dihydroxy-1',7'-trimethylene-4'-methoxy-6,7,2',3'-indolomorphinan] had a Kb in assay [1] of 12.6 nM.

The compound `CC1(C)Cc2cccc3c4c(n(c23)C1)[C@@H]1Oc2c(O)ccc3c2[C@@]12CCN(CC1CC1)[C@H](C3)[C@]2(O)C4` [Compound 26, 17-cyclopropylmethyl-6,7-didehydro-4,5α-epoxy-3,14β-dihydroxy-1',7'-(2,2-dimethylpropano)-6,7,2',3'-indolomorphinan] had a Kb in assay [1] of 3.16 nM.

`COc1cc2c3c(c1)c1c(n3CCC2)[C@@H]2Oc3c(O)ccc4c3[C@@]23CCN(CC2CC2)[C@H](C4)[C@]3(O)C1` [Compound 19, 17-cyclopropylmethyl-6,7-didehydro-4,5α-epoxy-3,14β-dihydroxy-1',7'-trimethylene-5'-methoxy-6,7,2',3'-indolomorphinan] had a Kb in assay [1] of 1 nM.

For the compound `Oc1ccc2c3c1O[C@H]1c4c(c5cc(Cl)cc6c5n4CCC6)C[C@@]4(O)[C@@H](C2)N(CC2CC2)CC[C@]314` [Compound 8, 17-cyclopropylmethyl-6,7-didehydro-4,5α-epoxy-3,14β-dihydroxy-1',7'-trimethylene-5'-chloro-6,7,2',3'-indolomorphinan], the Kb in assay [1] was 5.01 nM.

Consider `COc1ccc2c3c1O[C@H]1c4c(c5cc(C)cc6c5n4CCC6)C[C@@]4(O)[C@@H](C2)N(CC2CC2)CC[C@]314` [Compound 13, 17-cyclopropylmethyl-6,7-didehydro-4,5α-epoxy-3-methoxy-14β-hydroxy-1',7'-trimethylene-5'-methyl-6,7,2',3'-indolomorphinan], for which, in assay [2], it took a dose of 5.33 µg/kg to reach the 50% effect level (ED50).

On to `Oc1ccc2c3c1O[C@H]1c4c(c5cccc6c5n4CCCCC6)C[C@@]4(O)[C@@H](C2)N(CC2CC2)CC[C@]314` [Compound 21, 17-cyclopropylmethyl-6,7-didehydro-4,5α-epoxy-3,14β-dihydroxy-1',7'-pentamethylene-6,7,2',3'-indolomorphinan], for which, in assay [1], the Kb was 10 nM.
